“Also recorded” adds a separate entry of the source.
Tests used:
normal B cells = test: CD40L-induced cytokine secretion, Meso Scale Discovery multi-array; type: cell-based, human; conditions: 24 hours; for % inhibition of CD40L-induced MCP-1 secretion / % inhibition of CD40L-induced MIP-1β secretion / % inhibition of CD40L-induced hIL-6 secretion / % inhibition of CD40L-induced hIL-8 secretion / % inhibition of CD40L-induced hIL-10 secretion / % inhibition of CD40L-induced hTNF-α secretion: normal B cells
Experimental: (§1) Cells (1×10^5 cells per well) were cultured in a 96-well plate in the presence or absence of CD40L ([…], formaldehyde fixed CHO cells, 2×10^5 per well). […] Production of hIL-6, hIL-8, hIL-10, hTNF-α; hGM-CSF, hIL-1b, hIL-12p70, MCP-1, and MIP-1β beta was measured by Meso Scale Discovery® multi-array system (Meso Scale Discovery, Gaithersburg, Md.).

monocytes [1] = test: as above; type: cell-based, human; conditions: 24 hours
Experimental: as §1

[2] = tested on: B cells from normal human subjects; test: In vitro proliferation of normal human B cells / lymphocytes; type: cell-based
Source text: (§2) 2, 2000, and PCT International Application No. PCT/US01/30857, also titled “Human Anti-CD40 Antibodies,” filed Oct. 2, 2001, both of which are herein incorporated by reference in their entirety.
(§3) 4, 2003, Nov. 26, 2003, and Apr. 27, 2004, and assigned U.S. Patent Application Nos. 60/517,337 , 60/525,579, and 60/565,710, respectively, and International Patent Application No. PCT/US2004/037152, also entitled “Antagonist Anti-CD40 Monoclonal Antibodies and Methods for Their Use,” filed Nov. 4, 2004; the contents of each of which are herein incorporated by reference in their entirety.

normal human B cells [3] = test: Western blot of XIAP and cleaved PARP without sCD40L stimulation; type: cell-based; conditions: 10 μg/ml antibody, no sCD40L, 0 to 16 hours
Experimental: Cells were collected at 0, 4, 14, and 16 hours. XIAP, cleaved PARP, and β-actin controls were detected in cell lysates by Western blot.

cell-surface CD40 = cell-surface CD40 (Homo sapiens, UniProt P25942); test: Flow cytometric (FACS) assay of CD40 binding and CD40-ligand blocking
Source text: as §2

[4] = tested on: CD40-expressing target cells; test: Antibody dependent cellular cytotoxicity (ADCC); type: cell-based; conditions: native antibodies
Source text: as §2
Clones from 7 other hybridomas were identified as having antagonistic activity. Based on their relative antagonistic potency and ADCC activities, two hybridoma clones were selected for further evaluation (Table 1 below). They are named 131.2F8.5.9 (5.9) and 153.8E2.D10.D6.12.12 (12.12).

[5] = tested on: primary cancer cells from NHL patients; test: ADCC on primary cancer cells; type: cell-based, human; conditions: in vitro
Source text: as §3

normal human B cells [6] = test: Western blot of survival and signaling markers, rhsCD40L-stimulated B cells (Example 5, FIG. 1); type: cell-based
Source text: Cells were lysed and whole cell lysates resolved by SDS-PAGE and Western blotting using antibodies specific to human cPARP, Mcl-1, Bcl-xl, p-Akt, and p-p38 MAPK. All membranes were stripped and re-probed for either β-actin or total Akt or p38 MAPK protein, as appropriate.

[7] = target: T1, CD40-TRAF2/3 signaling complex (Homo sapiens, UniProt P25942); test: CD40 immunoprecipitation, TRAF2/TRAF3 Western blot; type: cell-based; conditions: 1 μg/ml sCD40L, 20 minutes
T1 construct: normal human B cells from healthy donors; endogenous in cells; host or cells: normal human B cells from healthy donors
Experimental: In these experiments, 4.0×10^6 normal human B cells from healthy donors (percent purity between 85-95%) were serum starved for four hours in 1% FBS-containing media and stimulated with 1 μg/ml sCD40L (Alexis Corporation, Bingham, Nottinghamshire, UK) for 20 minutes. Cells were collected at 0 and 20 minutes. CD40 was immunoprecipitated using polyclonal anti-CD40 (Santa Cruz Biotechnology, CA), and was probed in a Western blot with anti-TRAF2 mAb (Santa Cruz Biotechnology, CA), anti-TRAF3 mAb (Santa Cruz Biotechnology, CA), and anti-CD40 mAb (Santa Cruz Biotechnology, CA).

monocytes [8] = test: CD40L-induced production of VEGF; type: cell-based
Source text: In another experiment, CD40L-induced production of VEGF in monocytes is examined in a manner similar to that described above.

soluble CD40 = soluble CD40 (Homo sapiens, UniProt P25942); test: ELISA-type assay, binding to soluble CD40; conditions: ELISA-type assays
Source text: as §2

[9] = tested on: pre-clinical tumor models; test: Pre-clinical tumor models; type: in vivo
normal human B cells [10] = test: Western blot of phosphorylated signaling proteins in sCD40L-stimulated B cells; type: cell-based; conditions: 1 μg/ml sCD40L, 20 minutes
Experimental: In these experiments, 1.0×10^6 normal human B cells from healthy donors (percent purity between 85-95%) were stimulated with 1 μg/ml sCD40L (Alexis Corporation, Bingham, Nottinghamshire, UK). […] Cells were collected at 0 and 20 minutes. Phosphorylated IKKα (Ser180) and IKKβ (Ser 181) and total IKKβ controls were detected in cell lysates by Western blot.
(§4) In these experiments, 1.0×10^6 normal human B cells from healthy donors (percent purity between 85-95%) were serum starved in 1% FBS-containing media and stimulated with 1 μg/ml sCD40L (Alexis Corporation, Bingham, Nottinghamshire, UK). […] Cells were collected at 0 and 20 minutes. Phospho-IKKα, phospho-IKKβ, total IKKβ, phospho-ERK, total ERK, phospho-AKT, total AKT, phospho-p38, and total p38 were detected in cell lysates by Western blot.
as §4, with “Phospho-ERK,” for “Phospho-IKKα, phospho-IKKβ, total IKKβ, phospho-ERK, total ERK,”, “phospho-IKKα/β,” for “phospho-p38,”, “[…]” for “total p38”

[11] = 2 μg/ml rhsCD40L, 10 μg/ml antibody, 24 hr

cell-surface CD40, sequence (P25942 21-277): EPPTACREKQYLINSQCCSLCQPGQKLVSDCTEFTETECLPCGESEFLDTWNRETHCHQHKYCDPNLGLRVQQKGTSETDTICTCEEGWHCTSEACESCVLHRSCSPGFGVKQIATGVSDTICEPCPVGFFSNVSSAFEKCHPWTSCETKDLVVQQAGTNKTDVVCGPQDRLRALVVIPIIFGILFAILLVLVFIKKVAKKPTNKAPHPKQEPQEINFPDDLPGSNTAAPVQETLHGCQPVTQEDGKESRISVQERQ
T1 sequence (P25942 21-277, one chain of several): as the sequence (P25942 21-277) above
soluble CD40, sequence (P25942 21-193 limits assumed): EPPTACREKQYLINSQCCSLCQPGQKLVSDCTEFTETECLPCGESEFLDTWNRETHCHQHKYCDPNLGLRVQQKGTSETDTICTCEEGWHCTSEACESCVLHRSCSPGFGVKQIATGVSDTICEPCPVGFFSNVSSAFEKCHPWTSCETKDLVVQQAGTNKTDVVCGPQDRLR

specific binding to human CD40 (cell-surface CD40; FACS analysis): bind specifically to human CD40
CD40 expression [7]: no changes in CD40 expression
binding to soluble CD40 (soluble CD40): bind soluble CD40
Substance: CHIR-12.12: fully human anti-CD40 monoclonal antibody of the IgG1 isotype, hybridoma 153.8E2.D10.D6.12.12, ATCC PTA-5543, SEQ ID NO:2 and 4
cytokine production with antibody alone (agonistic activity) (normal B cells; absence of CD40L, 10 μg/ml): did not produce any of the cytokines above background levels
CD40L-induced production of all cytokines (normal B cells; normal B cells (n=3), 10 μg/ml): inhibited production of all cytokines
% inhibition of CD40L-induced MCP-1 secretion (normal B cells; Donor 1, 10 μg/ml): 55.3%
% inhibition of CD40L-induced MIP-1β secretion (normal B cells; Donor 1, 10 μg/ml): 54.4%
% inhibition of CD40L-induced hIL-6 secretion (normal B cells; Donor 1, 10 μg/ml): 92.2%
% inhibition of CD40L-induced hIL-8 secretion (normal B cells; Donor 1, 10 μg/ml): 98.2%
% inhibition of CD40L-induced hIL-10 secretion (normal B cells; Donor 1, 10 μg/ml): 90.5%
% inhibition of CD40L-induced hTNF-α secretion (normal B cells; Donor 1, 10 μg/ml): 92.8%
% inhibition of CD40L-induced MIP-1β secretion (normal B cells; Donor 2, 10 μg/ml): 92%
% inhibition of CD40L-induced hIL-6 secretion (normal B cells; Donor 2, 10 μg/ml): 99.9%
% inhibition of CD40L-induced hIL-8 secretion (normal B cells; Donor 2, 10 μg/ml): 84.7%
% inhibition of CD40L-induced hTNF-α secretion (normal B cells; Donor 2, 10 μg/ml): 97.4%
% inhibition of CD40L-induced MCP-1 secretion (normal B cells; Donor 3, 10 μg/ml): 25.7%
% inhibition of CD40L-induced MIP-1β secretion (normal B cells; Donor 3, 10 μg/ml): 92.5%
% inhibition of CD40L-induced hIL-6 secretion (normal B cells; Donor 3, 10 μg/ml): 99.3%
% inhibition of CD40L-induced hIL-8 secretion (normal B cells; Donor 3, 10 μg/ml): 99.5%
% inhibition of CD40L-induced hIL-10 secretion (normal B cells; Donor 3, 10 μg/ml): 94.4%
% inhibition of CD40L-induced hTNF-α secretion (normal B cells; Donor 3, 10 μg/ml): 98.5%
CD40L-induced production of hIL-10, hTNF-α, hIL-8, hIL-6, MCP-1 and MIP-1β (monocytes [1]; monocytes (n=1), 10 μg/ml): inhibited CD40L-induced monocyte production
% inhibition of CD40L-induced MCP-1 secretion (monocytes [1]; monocytes, Donor 1, 10 μg/ml): 92.6%
% inhibition of CD40L-induced MIP-1β secretion (monocytes [1]; monocytes, Donor 1, 10 μg/ml): 32.4%
% inhibition of CD40L-induced hIL-6 secretion (monocytes [1]; monocytes, Donor 1, 10 μg/ml): 64.9%
% inhibition of CD40L-induced hIL-8 secretion (monocytes [1]; monocytes, Donor 1, 10 μg/ml): 43.7%
% inhibition of CD40L-induced hIL-10 secretion (monocytes [1]; monocytes, Donor 1, 10 μg/ml): 58.5%
% inhibition of CD40L-induced hTNF-α secretion (monocytes [1]; monocytes, Donor 1, 10 μg/ml): 60.1%
CD40L-induced lymphocyte proliferation ([2]; human peripheral blood lymphocytes): inhibits CD40L-induced lymphocyte proliferation
effect on CD40 ligand-mediated proliferation of normal B cells ([2]; in vitro): act as antagonist anti-CD40 antibodies; also recorded: inhibit in vitro CD40 ligand-mediated proliferation of normal B cells
induction of proliferation of human lymphocytes (agonist activity) ([2]; lymphocytes from normal subjects, antibody alone): do not induce strong proliferation; also recorded: does not induce the proliferation of human peripheral blood lymphocytes
apoptosis (cleaved PARP, XIAP) without sCD40L stimulation (normal human B cells [3]): did not trigger these apoptotic effects; also recorded: does not trigger apoptosis in normal human B cells without CD40L stimulation
displacement of CD40-ligand pre-bound to cell surface CD40 (cell-surface CD40; flow cytometric assays): displace the pre-bound CD40-ligand; also recorded: can compete off CD40-ligand pre-bound to cell surface CD40
prevention of CD40-ligand binding to cell-surface CD40 (cell-surface CD40; flow cytometric assays): prevent the binding of CD40-ligand to cell-surface CD40; also recorded: can prevent CD40-ligand binding
ADCC activity, killing of CD40-expressing target cells [4]: have ADCC activity; also recorded: able to kill CD40-expressing target cells
killing of primary cancer cells by ADCC [5]: kill primary cancer cells from NHL patients by ADCC
expression of anti-apoptotic proteins Mcl-1 and Bcl-xl (normal human B cells [6]; [11]): inhibited the expression of the anti-apoptotic proteins Mcl-1 and Bcl-xl
phosphorylation of Akt and p38 MAPK (normal human B cells [6]; [11]): inhibiting the phosphorylation of the downstream signaling proteins
CD40L-induced signaling and survival of normal human B cells (normal human B cells [6]; FIG. 1): blocked
formation of the CD40-TRAF2/3 signaling complex [7]: abrogated formation of the CD40-TRAF2/3 signaling complex
CD40L-induced production of VEGF (monocytes [8]): inhibit CD40L-induced production of VEGF
anti-tumor potency compared with rituximab [9]: more potent anti-tumor antibody than is rituximab
phosphorylation of IKKα (Ser180) and IKKβ (Ser 181) (normal human B cells [10]; 10 μg/ml antibody): abrogated this response to sCD40L stimulation
IKKα/β, ERK, AKT and p38 phosphorylation (normal human B cells [10]; serum starved, 1 and 10 μg/ml antibody): inhibited phosphorylation; also recorded: abrogated the effects of sCD40L stimulation on these signaling pathways
phospho-ERK, phospho-AKT, phospho-IKKα/β, compared with PI3K/AKT and MEK inhibitors (normal human B cells [10]; serum starved): abrogated the phosphorylation of all of these signal transduction molecules

From patent publication US8333970B2, “Methods of monitoring the efficacy of anti-CD40 antibodies in treating a subject having an inflammatory or autoimmune disease” (Novartis AG, priority 2005, dated 2012)
